Test results taken from patent publication US6908919B2, “Substituted polycyclic aryl and heteroaryl pyrazinones useful for selective inhibition of the coagulation cascade” (Pharmacia Corporation, priority 1999, dated 2005).

How the values were obtained:
[1] = target: T1, recombinant soluble tissue factor and recombinant human factor VIIa (TF-VIIa) (Homo sapiens, UniProt P08709); assay: TF-VIIa Assay; format: biochemical; conditions: for inhibition at 30 µM: 1 h, at 30 µM inhibitor; for IC50: read-out: IC50 TF-VIIa
T1 construct: conversion of coagulation factor VII to VIIa by Xa; purchased American Diagnostica, Greenwich Conn; host or cells: VIIa purchased; soluble TF made in house in E. coli
T1 sequence (P08709 61-212 limits assumed): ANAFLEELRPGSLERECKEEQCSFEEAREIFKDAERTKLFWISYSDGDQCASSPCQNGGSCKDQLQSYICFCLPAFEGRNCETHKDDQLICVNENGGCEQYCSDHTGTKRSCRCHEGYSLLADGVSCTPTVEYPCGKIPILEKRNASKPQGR
T1 sequence (P08709 213-466 limits assumed): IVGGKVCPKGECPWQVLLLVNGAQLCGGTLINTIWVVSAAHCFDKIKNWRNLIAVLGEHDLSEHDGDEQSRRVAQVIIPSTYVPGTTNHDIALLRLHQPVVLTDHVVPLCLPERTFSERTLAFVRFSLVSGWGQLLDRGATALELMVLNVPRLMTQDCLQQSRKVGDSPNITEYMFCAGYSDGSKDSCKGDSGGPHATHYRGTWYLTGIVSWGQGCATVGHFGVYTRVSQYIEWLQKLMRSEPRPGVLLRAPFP
T1 sequence (P13726 33-251 partner limits assumed): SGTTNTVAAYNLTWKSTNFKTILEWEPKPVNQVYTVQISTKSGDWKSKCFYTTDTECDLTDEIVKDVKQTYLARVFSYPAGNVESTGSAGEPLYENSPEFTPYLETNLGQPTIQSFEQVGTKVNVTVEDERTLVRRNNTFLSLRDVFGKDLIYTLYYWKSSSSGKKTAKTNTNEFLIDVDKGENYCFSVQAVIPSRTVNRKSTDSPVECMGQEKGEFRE

[2] = target: T2, Human thrombin (Homo sapiens, UniProt P00734)
[3] = target: Human factor Xa (Homo sapiens, UniProt P00742); assay: Xa Assay; format: biochemical; set-up: purchased Enzyme Research Laboratories, South Bend Ind; conditions: for inhibition at 100 µM: at 100 μM inhibitor; for % Inhibition Factor Xa (30 µM): at 30 µM inhibitor
Human factor Xa, sequence (P00742 41-179 limits assumed): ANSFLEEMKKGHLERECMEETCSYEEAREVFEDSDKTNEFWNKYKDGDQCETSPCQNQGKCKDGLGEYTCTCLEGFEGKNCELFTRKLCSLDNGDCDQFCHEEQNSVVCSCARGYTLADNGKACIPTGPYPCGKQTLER
Human factor Xa, sequence (P00742 235-488 limits assumed): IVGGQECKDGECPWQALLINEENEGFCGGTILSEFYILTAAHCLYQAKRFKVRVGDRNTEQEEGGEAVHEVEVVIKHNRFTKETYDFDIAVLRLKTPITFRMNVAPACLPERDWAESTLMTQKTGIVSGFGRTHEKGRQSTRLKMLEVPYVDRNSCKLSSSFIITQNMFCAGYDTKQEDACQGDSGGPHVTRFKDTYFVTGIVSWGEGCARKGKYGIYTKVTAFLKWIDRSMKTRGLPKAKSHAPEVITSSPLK

[4] = target: T2, Human thrombin; assay: biochemical; conditions: for inhibition at 100 µM: read-out: % Inhibition Thrombin II at 100 μM

SMILES	inhibition at 100 µM [3] [%]	IC50 [4] [µM]	IC50 [1] [µM]	inhibition at 100 µM [4] [%]	also measured
C/N=C(/NC)c1ccc(CNC(=O)Cn2c(-c3cccc(N)c3)c(Cl)nc(NC3CCC3)c2=O)cc1 [Example 162]					inhibition at 30 µM [1]: 35%; % Inhibition Thrombin II (30 µM) [2]: 2%
N=C(N)c1ccc(CNCCn2c(-c3cccc(N)c3)c(Cl)nc(NC3CCC3)c2=O)cc1 [Example 139]	41	35.8	4.71		
Nc1cccc(-c2c(Cl)nc(NC3CCC3)c(=O)n2CC(=O)NCc2ccc3c(N)nsc3c2)c1 [Example 145]		> 30	26.8		% Inhibition Factor Xa (30 µM) [3]: 3%
CC(C)Nc1nc(Br)c(-c2cccc(N)c2)n(CC(=O)NCc2ccc(C(=N)N)cc2)c1=O [Example 124]		4.68	0.016		% Inhibition Factor Xa (30 µM) [3]: 17%
CC(C)Nc1ncc(-c2cc(N)cc(N)c2)n(CC(=O)NCc2ccc(C(=N)N)cc2)c1=O [Example 121]			0.0095		inhibition at 83 µM ([3]; at 83 μM inhibitor): 23%; inhibition at 83 µM ([4]; read-out: % Inhibition Thrombin II at 83 μM): 44%
N=C(N)c1ccc(CNC(=O)Cn2c(-c3cccc(C(=N)N)c3)c(Cl)nc(NC3CCC3)c2=O)cc1 [Example 114]		4.3	0.38		IC50 [3]: 6.5 µM
N=C(N)c1ccc(CNC(=O)Cn2c(-c3cc(N)nc(C(=O)O)c3)cnc(NC3CCC3)c2=O)cc1 [Example 120]	43		0.1	47	
N=C(N)c1ccc(Cc2cccc(-n3c(-c4cccc(N)c4)c(Cl)nc(NC4CCC4)c3=O)c2)cc1 [Example 138]	28			39	inhibition at 30 µM [1]: 8%
CC(C)Nc1nc(Cl)c(-c2cccc(N)c2)n(CC(=O)NNc2ccc(C(=N)N)cc2)c1=O [Example 157]		35	0.7		IC50 [3]: 64 µM
Nc1cccc(-c2c(Cl)nc(NC3CCC3)c(=O)n2CC(=O)NCc2ccc3ccnc(N)c3c2)c1 [Example 147]		> 30			IC50 [3]: > 30 µM; inhibition at 30 µM [1]: 5%
N=C(N)c1ccc(CNC(=O)Cn2c(-c3ccc(N)cc3)c(Cl)nc(NC3CCC3)c2=O)cc1 [Example 115]		7.5	0.55		% Inhibition Factor Xa (30 µM) [3]: 10%
Nc1cccc(-c2c(Cl)nc(NC3CCC3)c(=O)n2CC(=O)NCc2ccc(-c3noc(=O)[nH]3)cc2)c1 [Example 152]		> 30			IC50 [3]: > 30 µM; inhibition at 30 µM [1]: 28%

Now from value to compound, other results behind:

inhibition at 100 µM [3] [%]	IC50 [4] [µM]	IC50 [1] [µM]	inhibition at 100 µM [4] [%]	SMILES	also measured
29		0.332	40	CC(C)Nc1nc(Cl)c(-c2cc(N)cc(C(=O)NCc3cc(C(F)(F)F)cc(C(F)(F)F)c3)c2)n(CC(=O)NCc2ccc(C(=N)N)cc2)c1=O [Example 128-6]	
35		0.0114	46	CC(C)Nc1nc(Cl)c(-c2cc(N)cc(C(=O)NCc3ccccc3C(F)(F)F)c2)n(CC(=O)NCc2ccc(C(=N)N)cc2)c1=O [Example 128-11]	
26		0.0491	36	CC(C)Nc1nc(Cl)c(-c2cc(N)cc(C(=O)NCc3cccc(C(F)(F)F)c3)c2)n(CC(=O)NCc2ccc(C(=N)N)cc2)c1=O [Example 128-13]	
18		0.0261	37	CC(C)Nc1nc(Cl)c(-c2cc(N)cc(C(=O)NCc3ccccn3)c2)n(CC(=O)NCc2ccc(C(=N)N)cc2)c1=O [Example 128-19]	
41	20.2	0.0109		CC(C)Nc1nc(Cl)c(-c2cc(N)cc(C(=O)NC3CCCCCC3)c2)n(CC(=O)NCc2ccc(C(=N)N)cc2)c1=O [Example 128-17]	
32	13.3	0.0066		CC(C)Nc1nc(Cl)c(-c2cc(N)cc(C(=O)NC3CCC3)c2)n(CC(=O)NCc2ccc(C(=N)N)cc2)c1=O [Example 128-15]	
36	10.2	0.007		CC(C)Nc1nc(Cl)c(-c2cc(N)cc(C(=O)NC3CCCC3)c2)n(CC(=O)NCc2ccc(C(=N)N)cc2)c1=O [Example 128-16]	
